Laboratory results from ChEMBL document CHEMBL3046590, “Design and synthesis of some thiazolotriazolyl esters as anti-inflammatory and analgesic agents” (Med Chem Res, 2012).

What was measured:
Mus musculus [1] = assay: Toxicity in Mus musculus BALB/c (mouse) assessed as behavioral changes at 50 to 200 mg/kg, po after 72 hr; type: organism-based; design: dose 50-200 mg/kg, route oral; details: in vivo
Mus musculus [2] = assay: Toxicity in Mus musculus BALB/c (mouse) assessed as mortality at 50 to 200 mg/kg, po after 72 hr; type: organism-based; design: dose 50-200 mg/kg, route oral; details: in vivo
Mus musculus [3] = assay: Antioxidant activity in Mus musculus BALB/c (mouse) stomach assessed as TBARS level at 100 mg/kg, po (reference value: 80.4 +/- 5.4 nmol/g ); type: functional
Mus musculus [4] = assay: Anti-inflammatory activity in Mus musculus BALB/c (mouse) assessed as inhibition of carrageenan-induced paw swelling at 100 mg/kg, po administered 1 hr followed by carrageenan challenge measured at 360 min relative to control; type: functional
Mus musculus [5] = assay: Anti-inflammatory activity in Mus musculus BALB/c (mouse) assessed as inhibition of carrageenan-induced paw swelling at 100 mg/kg, po administered 1 hr followed by carrageenan challenge measured at 270 min relative to control; type: functional
Mus musculus [6] = assay: Anti-inflammatory activity in Mus musculus BALB/c (mouse) assessed as inhibition of carrageenan-induced paw swelling at 100 mg/kg, po administered 1 hr followed by carrageenan challenge measured at 180 min relative to control; type: functional
Mus musculus [7] = assay: Anti-inflammatory activity in Mus musculus BALB/c (mouse) assessed as carrageenan-induced paw swelling at 50 mg/kg, po administered 1 hr followed by carrageenan challenge measured at 360 min (reference value: 105 +/- 4.5 x 10^-2 mm); type: functional
Mus musculus [8] = assay: Anti-inflammatory activity in Mus musculus BALB/c (mouse) assessed as carrageenan-induced paw swelling at 200 mg/kg, po administered 1 hr followed by carrageenan challenge measured at 360 min (reference value: 105 +/- 4.5 x 10^-2 mm); type: functional
Mus musculus [9] = assay: Anti-inflammatory activity in Mus musculus BALB/c (mouse) assessed as carrageenan-induced paw swelling at 100 mg/kg, po administered 1 hr followed by carrageenan challenge measured at 360 min (reference value: 105 +/- 4.5 x 10^-2 mm); type: functional
Mus musculus [10] = assay: Anti-inflammatory activity in Mus musculus BALB/c (mouse) assessed as carrageenan-induced paw swelling at 50 mg/kg, po administered 1 hr followed by carrageenan challenge measured at 270 min (reference value: 78 +/- 8.4 x 10^-2 mm); type: functional
Mus musculus [11] = assay: Anti-inflammatory activity in Mus musculus BALB/c (mouse) assessed as carrageenan-induced paw swelling at 200 mg/kg, po administered 1 hr followed by carrageenan challenge measured at 270 min (reference value: 78 +/- 8.4 x 10^-2 mm); type: functional
Mus musculus [12] = assay: Anti-inflammatory activity in Mus musculus BALB/c (mouse) assessed as carrageenan-induced paw swelling at 100 mg/kg, po administered 1 hr followed by carrageenan challenge measured at 270 min (reference value: 78 +/- 8.4 x 10^-2 mm); type: functional
Mus musculus [13] = assay: Anti-inflammatory activity in Mus musculus BALB/c (mouse) assessed as carrageenan-induced paw swelling at 50 mg/kg, po administered 1 hr followed by carrageenan challenge measured at 180 min (reference value: 52 +/- 4.6 x 10^-2 mm); type: functional
Mus musculus [14] = assay: Anti-inflammatory activity in Mus musculus BALB/c (mouse) assessed as carrageenan-induced paw swelling at 200 mg/kg, po administered 1 hr followed by carrageenan challenge measured at 180 min (reference value: 52 +/- 4.6 x 10^-2 mm); type: functional
Mus musculus [15] = assay: Anti-inflammatory activity in Mus musculus BALB/c (mouse) assessed as carrageenan-induced paw swelling at 100 mg/kg, po administered 1 hr followed by carrageenan challenge measured at 180 min (reference value: 52 +/- 4.6 x 10^-2 mm); type: functional
Mus musculus [16] = assay: Anti-inflammatory activity in Mus musculus BALB/c (mouse) assessed as carrageenan-induced paw swelling at 50 mg/kg, po administered 1 hr followed by carrageenan challenge measured at 90 min (reference value: 39 +/- 5.6 x 10^-2 mm); type: functional
Mus musculus [17] = assay: Anti-inflammatory activity in Mus musculus BALB/c (mouse) assessed as carrageenan-induced paw swelling at 200 mg/kg, po administered 1 hr followed by carrageenan challenge measured at 90 min (reference value: 39 +/- 5.6 x 10^-2 mm); type: functional
Mus musculus [18] = assay: Anti-inflammatory activity in Mus musculus BALB/c (mouse) assessed as carrageenan-induced paw swelling at 100 mg/kg, po administered 1 hr followed by carrageenan challenge measured at 90 min (reference value: 39 +/- 5.6 x 10^-2 mm); type: functional
Mus musculus [19] = assay: Analgesic activity in Mus musculus BALB/c (mouse) assessed as inhibition of acetic acid-induced writhing at 100 mg/kg, po administered 1 hr followed by acetic acid challenge measured for 10 min; type: functional
Mus musculus [20] = assay: Anti-inflammatory activity in Mus musculus BALB/c (mouse) assessed as inhibition of carrageenan-induced paw swelling at 50 mg/kg, po administered 1 hr followed by carrageenan challenge measured at 360 min relative to control; type: functional
Mus musculus [21] = assay: Anti-inflammatory activity in Mus musculus BALB/c (mouse) assessed as inhibition of carrageenan-induced paw swelling at 50 mg/kg, po administered 1 hr followed by carrageenan challenge measured at 270 min relative to control; type: functional
Mus musculus [22] = assay: Anti-inflammatory activity in Mus musculus BALB/c (mouse) assessed as inhibition of carrageenan-induced paw swelling at 200 mg/kg, po administered 1 hr followed by carrageenan challenge measured at 360 min relative to control; type: functional
Mus musculus [23] = assay: Anti-inflammatory activity in Mus musculus BALB/c (mouse) assessed as inhibition of carrageenan-induced paw swelling at 200 mg/kg, po administered 1 hr followed by carrageenan challenge measured at 270 min relative to control; type: functional

Compound | Activity (Mus musculus [1]) | Activity (Mus musculus [2]) | Activity (Mus musculus [3]) | inhibition in vivo at 100 mg/kg (Mus musculus [4]) | inhibition in vivo at 100 mg/kg (Mus musculus [5]) | inhibition in vivo at 100 mg/kg (Mus musculus [6]) | Activity (Mus musculus [7]) | Activity (Mus musculus [8]) | Activity (Mus musculus [9]) | Activity (Mus musculus [10]) | Activity (Mus musculus [11]) | Activity (Mus musculus [12]) | Activity (Mus musculus [13]) | Activity (Mus musculus [14]) | Activity (Mus musculus [15]) | Activity (Mus musculus [16]) | Activity (Mus musculus [17]) | Activity (Mus musculus [18]) | inhibition in vivo at 100 mg/kg (Mus musculus [19]) | inhibition in vivo at 50 mg/kg (Mus musculus [20]) | further results
CCOC(=O)Cc1csc2nc(-c3ccccc3)nn12 | Non-toxic | Non-toxic | 174.1 nmol/g | 16.7% | 31.1% | 23.1% | 102 ×10⁻² mm | 105.4 ×10⁻² mm | 87.5 ×10⁻² mm | 79.7 ×10⁻² mm | 75 ×10⁻² mm | 53.7 ×10⁻² mm | 53.5 ×10⁻² mm | 48.1 ×10⁻² mm | 40 ×10⁻² mm | 76.3 ×10⁻² mm | 35.2 ×10⁻² mm | 45 ×10⁻² mm |  |  | 
CCOC(=O)Cc1csc2nc(Cc3cc(OC)c(OC)c(OC)c3)nn12 | Non-toxic | Non-toxic | 157.1 nmol/g |  |  | 37.9% | 87.2 ×10⁻² mm | 93.4 ×10⁻² mm | 129.5 ×10⁻² mm | 61.3 ×10⁻² mm | 70.3 ×10⁻² mm | 105 ×10⁻² mm | 46 ×10⁻² mm | 42.5 ×10⁻² mm | 32.3 ×10⁻² mm | 55.1 ×10⁻² mm | 38 ×10⁻² mm | 40.8 ×10⁻² mm | 62.8% | 16.9% | inhibition in vivo at 50 mg/kg (Mus musculus [21]): 21.4%
CCOC(=O)c1sc2nc(-c3ccc(Cl)cc3)nn2c1C | Non-toxic | Non-toxic | 116.9 nmol/g | 28.2% |  | 17.7% | 117.8 ×10⁻² mm | 98.3 ×10⁻² mm | 75.4 ×10⁻² mm | 91.1 ×10⁻² mm | 69.6 ×10⁻² mm | 69.9 ×10⁻² mm | 70 ×10⁻² mm | 45.7 ×10⁻² mm | 42.8 ×10⁻² mm | 66.1 ×10⁻² mm | 35.7 ×10⁻² mm | 45.5 ×10⁻² mm | 89.7% |  | 
COc1ccc(CCC2=NC(=S)N=N2)cc1 | Non-toxic | Non-toxic | 116.2 nmol/g | 23.3% | 30.8% | 51.3% | 78.2 ×10⁻² mm | 87.6 ×10⁻² mm | 80.5 ×10⁻² mm | 73.6 ×10⁻² mm | 66.3 ×10⁻² mm | 54 ×10⁻² mm | 46.8 ×10⁻² mm | 46.4 ×10⁻² mm | 25.3 ×10⁻² mm | 50 ×10⁻² mm | 42.1 ×10⁻² mm | 36.3 ×10⁻² mm | 24.3% | 25.5% | inhibition in vivo at 200 mg/kg (Mus musculus [22]): 16.6%; inhibition in vivo at 200 mg/kg (Mus musculus [23]): 15%
